Test results taken from US20120184548A1, “CARBOXYLIC ACID ARYL AMIDES” (priority 2011, published 2012).

How the values were obtained:
Human DYRK1B = target: T1, Human DYRK1B (Homo sapiens, UniProt Q9Y463); experiment: DYRK1B Kinase TR-FRET (IMAP-Tb) Assay; format: biochemical; settings: for IC50: TR-FRET, ATP 70 μM, 37° C. for 60 minutes, averages of multiple runs, read-out: Enzyme IC50 DYRK1B
T1 construct: purchased Invitrogen PR8350B (former PV4649)
From the text: The kinase TR-FRET (IMAP-Tb) assay uses a fluorescence labeled substrate peptide in the kinase reaction. Upon phosphorylation by the kinase, phosphopeptide is produced, which will be detected by the binding solution provided in IMAP TR-FRET binding kit. After the completion of the kinase reaction, the reaction will be stopped by adding the binding solution containing terbium tracer. This tracer is immobilized on the surface of the IMAP beads, which also contain metal ions on the beads that bind to the phospho-groups of the products. Thus the phosphorylated product of the reaction can enter into close proximity to the tracer, producing resonance energy transfer. Due to the long lifetime of terbium (Tb) fluorescence the detection can be run in time resolved mode, which virtually eliminates fluorescence interference from assay components or compounds. […] IC50 is the amount of test compound that inhibits 50% of the activity of DYRK1B in this assay. […] 1. Human DYRK1B: from Invitrogen. Part # PR8350B (former PV4649) 2. Substrate Peptide: RRRFRPASPLRGPPK 3. IMAP TR-FRET IPP Explorer Kit: from Molecular Devices. Part # R8157 4. Kinase Assay Buffer (KAB): 10 mM HEPES pH 7.0, 50 mM NaCl, 5 mM MgCl2, 1 mM DTT, 1 mM NaVO4, 200 μg/mL BSA (0.02%) 5. Assay Plate: Remp polypropylene clear 384-well microplate. Cat#23490-102 6. Detection Plate: Costa black 384-well microplate. Cat #3710 Assay Procedure: This assay was performed as follows: 1. Transfer 1.5 μL of 20× compound solution to each well of an assay plate. 2. Add to each well 22.5 μL of KAB Buffer. 3. Add to each well 3 μL of the solution of DYRK1B and ATP. […] Add to each well 3 μL of the substrate peptide. […] Incubate the assay plates at 37° C. for 60 minutes. 6. Add 18 μL of Detection Solution (1:800 diluted Progress bead stock, 1:400 diluted Tb stock, 80% Buffer A, and 20% Buffer B) into each well of detection plates. 7. Transfer 6 μL of assay solution from the assay plate to the detection plate. 8. Shake detection plates for 30 minutes. 9. Read plates in Envision with wavelength set at excitation 340 nm for Tb, emission 490 nm, and […]. 10. Calculation: TR-FRET Signal=(Reading at […])×2000000

Human DYRK1A = target: T2, Human DYRK1A (Homo sapiens, UniProt Q13627); experiment: DYRK1A Kinase TR-FRET (IMAP-Tb) Assay; format: biochemical; settings: for IC50: TR-FRET, ATP 70 μM, 37° C. for 60 minutes, averages of multiple runs, read-out: Enzyme IC50 DYRK1A
T2 construct: purchased Invitrogen PV3997
From the text: The kinase TR-FRET (IMAP-Tb) assay uses a fluorescence labeled substrate peptide in the kinase reaction. Upon phosphorylation by the kinase, phosphopeptide is produced, which will be detected by the binding solution provided in IMAP TR-FRET binding kit. After the completion of the kinase reaction, the reaction will be stopped by adding the binding solution containing terbium tracer. This tracer is immobilized on the surface of the IMAP beads, which also contain metal ions on the beads that bind to the phospho-groups of the products. Thus the phosphorylated product of the reaction can enter into close proximity to the tracer, producing resonance energy transfer. Due to the long lifetime of terbium (Tb) fluorescence the detection can be run in time resolved mode, which virtually eliminates fluorescence interference from assay components or compounds.
The TR-FRET signal measurement from this assay, given as an IC50 measurement, is a measure of a test compound's ability to interfere with the phosphorylation of the peptide substrate, that is it inhibits the phosphorylation of the substrate peptide by DYRK1A, and is thus a measure of the test compound's ability to inhibit the activity of DYRK1A.
1. Human DYRK1A: from Invitrogen. Part # PV3997
2. Substrate Peptide: […]
3. IMAP TR-FRET IPP Explorer Kit: from Molecular Devices. Part # R8157 4. Kinase Assay Buffer (KAB): 10 mM HEPES pH 7.0, 50 mM NaCl, 5 mM MgCl2, 1 mM DTT, 1 mM NaVO4, 200 μg/mL BSA (0.02%) 5. Assay Plate: Remp polypropylene clear 384-well microplate. […] Detection Plate: Costa black 384-well microplate. […] Transfer 1.5 μL of 20× compound solution to each well of an assay plate. 2. Add to each well 22.5 μL of KAB Buffer. 3. Add to each well 3 μL of the solution of DYRK1A and ATP. […] Add to each well 3 μL of the substrate peptide. The assay concentration is 1.0 μM 5. Incubate the assay plates at 37° C. for 60 minutes. 6. Add 18 μL of Detection Solution (1:800 diluted Progress bead stock, 1:400 diluted Tb stock, 80% Buffer A, and 20% Buffer B) into each well of detection plates. 7. Transfer 6 μL of assay solution from the assay plate to the detection plate. 8. Shake detection plates for 30 minutes. 9. Read plates in Envision with wavelength set at excitation 340 nm for Tb, emission 490 nm, and […].

[1] = test system: SW620 human colon cancer cells; experiment: SW620 Cell Viability Assay (CellTiter-Glo); format: cell-based; settings: SW-620, 96 h, 4 days incubation, read-out: Cellular EC50 SW620
Description: 1. Cell Plate Preparation: SW620 human colon cancer cells (known to express DYRK1B), obtained from ATCC, were seeded into 96-well plates at […] in 50 μL of media. • Harvested the required number of cells (counts & viability determined by Guava Viacount). • Centrifuge cells to pellet and removed supernant. • Resuspended in growth media (50 μL/well) & pipetted thoroughly to break up clumps. • Setup for ˜100 wells/plate, therefore, VT=5 mL/plate @ 1.2×10^5 cells/mL. 1A. Some cells (S-) were allowed to attach for 24 hrs, serum starved for 48 hrs, and then followed with treatments of test compound.
Test Compound solution was prepared in regular corresponding media supplemented with serum
2. Test Compound Preparation: Test compounds were solubilized in either DMSO or media and prepared at various stock concentrations. • All compounds were incubated at 37° C. for 30 minutes and vortexed. • (5 mM stocks of test compound were prepared for non-soluble drugs)
3. Test Compound Plate Preparation:
• The 10 mM test compound stock was diluted to a concentration of 100× the final Cmax concentration. • Then the test compound stock is diluted 50-fold in media and/or second test compound for a final Cmax concentration in the test compound plate. • The Cmax in the test compound plate (2% DMSO) is 2-fold higher than the final Cmax in the cell plate (60 uL titrations were 1:3). 4. Viability Assay: This assay was performed as follows: • Transfer 50 μL of test compound solution per well from the test compound plate onto the cell plate prepared in Step #1. • Mix the plate with treated cells by pipetting up and down three times with 200 μL multi-channel pipet. • Incubate the cells in 5% CO2 incubator @ 37° C. for 4 days. • Run the CellTiter-Glo™ Luminescent Cell Viability Assay. The results of this assay, given as EC50 values, indicate the concentration of test compound that inhibits tumor cell proliferation by 50%.

T1 sequence (Q9Y463 whole entry): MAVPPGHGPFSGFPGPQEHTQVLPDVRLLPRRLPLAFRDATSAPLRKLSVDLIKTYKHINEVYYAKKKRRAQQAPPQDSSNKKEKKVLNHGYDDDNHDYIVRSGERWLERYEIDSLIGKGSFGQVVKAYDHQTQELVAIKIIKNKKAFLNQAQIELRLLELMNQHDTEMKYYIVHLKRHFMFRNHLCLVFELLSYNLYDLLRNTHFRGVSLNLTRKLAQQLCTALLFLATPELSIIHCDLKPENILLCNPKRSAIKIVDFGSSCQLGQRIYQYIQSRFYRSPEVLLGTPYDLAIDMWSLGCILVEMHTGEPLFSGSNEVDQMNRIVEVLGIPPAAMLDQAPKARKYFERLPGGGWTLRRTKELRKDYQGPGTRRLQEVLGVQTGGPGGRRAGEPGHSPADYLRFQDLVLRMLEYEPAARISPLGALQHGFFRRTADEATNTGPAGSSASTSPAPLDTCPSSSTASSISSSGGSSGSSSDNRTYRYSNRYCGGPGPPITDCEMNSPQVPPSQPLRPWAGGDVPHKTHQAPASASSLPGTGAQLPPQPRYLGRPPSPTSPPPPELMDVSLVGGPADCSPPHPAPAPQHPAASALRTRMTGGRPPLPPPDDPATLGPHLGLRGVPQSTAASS

SMILES	inhibition at 10 µM (Human DYRK1B; 10 μM test compound, reported where IC50 was not determined, read-out: Enzyme DYRK1B % inhibition at 10 μM test compound concentration)	inhibition at 10 µM (Human DYRK1A; 10 μM test compound, reported where IC50 was not determined, read-out: Enzyme DYRK1A % inhibition at 10 μM test compound concentration)	EC50 [1]	IC50 (Human DYRK1B)	IC50 (Human DYRK1A)
COC(=O)c1ccc(Cl)c(NC(=O)c2cc3cc(OC)c(OC)cc3[nH]c2=O)c1 [Example 19, 4-Chloro-3-[(6,7-dimethoxy-2-oxo-1,2-dihydro-quinoline-3-carbonyl)-amino]-benzoic acid methyl ester]	47%	44%	> 10000 nM		
COCCOc1cc2cc(C(=O)Nc3cc(C(=O)NC(CCN)c4ccccc4)ccc3Cl)c(=O)[nH]c2cc1OC (stereo not drawn) [Example 61, N-(5-(3-Amino-1-phenylpropylcarbamoyl)-2-chlorophenyl)-7-methoxy-6-(2-methoxyethoxy)-2-oxo-1,2-dihydroquinoline-3-carboxamide]			470 nM	11.5 nM	15.7 nM
COc1cc2cc(C(=O)Nc3cc(C(=O)NCc4ccccc4)ccc3C)c(=O)[nH]c2cc1OC [Example 42, 6,7-Dimethoxy-2-oxo-1,2-dihydro-quinoline-3-carboxylic acid (5-benzylcarbamoyl-2-methyl-phenyl)-amide]			> 10000 nM	320 nM	226 nM
COc1cc2[nH]c(=O)c(C(=O)Nc3cc(C(=O)NCc4cccc(Cl)c4)ccc3C)cc2cc1OCCN1CCOCC1 [Example 43, 7-Methoxy-6-(2-morpholin-4-yl-ethoxy)-2-oxo-1,2-dihydro-quinoline-3-carboxylic acid [5-(3-chloro-benzylcarbamoyl)-2-methyl-phenyl]-amide]			306 nM	178 nM	6 nM
COCCOc1cc2cc(C(=O)Nc3cc(C(=O)N[C@H](CCN)c4ccccc4)ccc3Cl)c(=O)[nH]c2cc1OC [Example 63, (R)-N-(5-(3-Amino-1-phenylpropylcarbamoyl)-2-chlorophenyl)-7-methoxy-6-(2-methoxyethoxy)-2-oxo-1,2-dihydroquinoline-3-carboxamide]			640 nM	8 nM	5 nM
COCCOc1cc2cc(C(=O)Nc3cc(C(=O)N[C@H](CCN)c4ccccc4)ccc3C)c(=O)[nH]c2cc1OC (single isomer, unassigned) [Example 58]			4040 nM	29 nM	9 nM
COCCOc1cc2cc(C(=O)Nc3cc(C(=O)NCc4cccc(Cl)c4)ccc3C)c(=O)[nH]c2cc1OC [Example 52, 7-Methoxy-6-(2-methoxy-ethoxy)-2-oxo-1,2-dihydro-quinoline-3-carboxylic acid [5-(3-chloro-benzylcarbamoyl)-2-methyl-phenyl]-amide]			780 nM	181 nM	118 nM
COCCOc1cc2cc(C(=O)Nc3cc(C(=O)NC(CN)c4ccccc4)ccc3Cl)c(=O)[nH]c2cc1OC (stereo not drawn) [Example 62, N-(5-(2-Amino-1-phenylethylcarbamoyl)-2-chlorophenyl)-7-methoxy-6-(2-methoxyethoxy)-2-oxo-1,2-dihydroquinoline-3-carboxamide]			440 nM	29.1 nM	11.4 nM
COc1cc2cc(C(=O)Nc3cc(C(=O)N[C@H](CO)c4ccccc4)ccc3C)c(=O)[nH]c2cc1OC [Example 57, (S)-N-(5-(2-Hydroxy-1-phenylethylcarbamoyl)-2-methylphenyl)-6,7-dimethoxy-2-oxo-1,2-dihydroquinoline-3-carboxamide]			6500 nM	883 nM	186 nM
COc1cc2cc(C(=O)Nc3cc(C(=O)NC(CCN)c4ccccc4)ccc3C)c(=O)[nH]c2cc1OC (stereo not drawn) [Example 35, 6,7-Dimethoxy-2-oxo-1,2-dihydro-quinoline-3-carboxylic acid [5-(3-amino-1-phenyl-propylcarbamoyl)-2-methyl-phenyl]-amide]			2050 nM	59.5 nM	154 nM
COCCOc1cc2cc(C(=O)Nc3cc(C(=O)N[C@@H](CCN)c4ccccc4)ccc3Cl)c(=O)[nH]c2cc1OC [Example 64, (S)-N-(5-(3-Amino-1-phenylpropylcarbamoyl)-2-chlorophenyl)-7-methoxy-6-(2-methoxyethoxy)-2-oxo-1,2-dihydroquinoline-3-carboxamide]			9200 nM	253 nM	186 nM
COCCOc1cc2cc(C(=O)Nc3cc(C(=O)NC(CN)c4ccccc4)ccc3C)c(=O)[nH]c2cc1OC (stereo not drawn) [Example 37, 7-Methoxy-6-(2-methoxy-ethoxy)-2-oxo-1,2-dihydro-quinoline-3-carboxylic acid [5-(2-amino-1-phenyl-ethylcarbamoyl)-2-methyl-phenyl]-amide]			1820 nM	32.5 nM	19.1 nM
COc1cc2[nH]c(=O)c(C(=O)Nc3cc(C(=O)NC(CCN)c4ccccc4)ccc3C)cc2cc1OCCN1CCOCC1 (stereo not drawn) [Example 44, 7-Methoxy-6-(2-morpholin-4-yl-ethoxy)-2-oxo-1,2-dihydro-quinoline-3-carboxylic acid [5-(3-amino-1-phenyl-propylcarbamoyl)-2-methyl-phenyl]-amide]			> 3000 nM	63 nM	33.4 nM
